{"source": "ChEMBL document CHEMBL1201862", "about": "“PubChem BioAssay data set” (2004)", "assay_in_all_cases": "inhibition of tumour cell growth, NCI panel, 48 h", "key": {"[1]": {"test_system": "UO-31"}, "[2]": {"test_system": "HCT-116"}, "[3]": {"test_system": "A549"}, "[4]": {"test_system": "SF-268"}, "[5]": {"test_system": "CCRF-CEM"}, "[6]": {"test_system": "A498"}, "[7]": {"test_system": "Hs-578T"}, "[8]": {"test_system": "SK-MEL-5"}, "[9]": {"test_system": "RXF 393"}, "[10]": {"test_system": "Malme-3M"}, "[11]": {"test_system": "LOX IMVI"}, "[12]": {"test_system": "SK-MEL-28"}, "[13]": {"test_system": "NCI-H23"}, "[14]": {"test_system": "786-0"}, "[15]": {"test_system": "HL-60"}, "[16]": {"test_system": "DMS-273"}, "[17]": {"test_system": "MOLT-4"}, "[18]": {"test_system": "SF-539"}, "[19]": {"test_system": "SK-OV-3"}, "[20]": {"test_system": "K562"}}, "note": "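Exposure lasted 48 hours, with cells grown in 96-well plates and compounds tested at five concentrations. GI50: concentration for 50% inhibition of growth.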 Calls of active or inactive are those of the source. Rule as the data show it: active = GI50 up to about 1.1 µM and inactive = higher."}
{"smiles": "CO[C@H]1[C@H](O)[C@H](O[C@H]2CC[C@@]3(C)[C@H](CC[C@@H]4[C@@H]3CC[C@]3(C)[C@@H](C5=CC(=O)OC5)CC[C@]43O)C2)O[C@@H](C)[C@@H]1O", "note": "[NERIIFOLIN]", "values": [{"measurement": "GI50", "setting": "[1]", "result": "0.902 nM (active)"}, {"measurement": "GI50", "setting": "[2]", "result": "0.689 nM (active)"}, {"measurement": "GI50", "setting": "[3]", "result": "0.379 nM (active)"}, {"measurement": "GI50", "setting": "[4]", "result": "0.444 nM (active)"}, {"measurement": "GI50", "setting": "[5]", "result": "0.362 nM (active)"}, {"measurement": "GI50", "setting": "[6]", "result": "8.63 nM (active)"}, {"measurement": "GI50", "setting": "[7]", "result": "< 0.1 nM (active)"}, {"measurement": "GI50", "setting": "[8]", "result": "0.838 nM (active)"}, {"measurement": "GI50", "setting": "[9]", "result": "< 10 nM (active)"}, {"measurement": "GI50", "setting": "[10]", "result": "0.428 nM (active)"}, {"measurement": "GI50", "setting": "[11]", "result": "0.755 nM (active)"}, {"measurement": "GI50", "setting": "[12]", "result": "1.89 nM (active)"}, {"measurement": "GI50", "setting": "[13]", "result": "0.394 nM (active)"}, {"measurement": "GI50", "setting": "[14]", "result": "0.439 nM (active)"}, {"measurement": "GI50", "setting": "[15]", "result": "0.419 nM (active)"}, {"measurement": "GI50", "setting": "[16]", "result": "0.548 nM (active)"}, {"measurement": "GI50", "setting": "[17]", "result": "0.377 nM (active)"}, {"measurement": "GI50", "setting": "[18]", "result": "0.569 nM (active)"}, {"measurement": "GI50", "setting": "[19]", "result": "1.08 nM (active)"}]}
{"smiles": "COc1ccc(C2=CN3CCC[C@H]3C=C2c2cc(O)c(OC)c(OC)c2)cc1OC", "values": [{"measurement": "GI50", "setting": "[1]", "result": "10.8 nM (active)"}, {"measurement": "GI50", "setting": "[2]", "result": "1.98 nM (active)"}, {"measurement": "GI50", "setting": "[3]", "result": "3.94 nM (active)"}, {"measurement": "GI50", "setting": "[4]", "result": "4.54 nM (active)"}, {"measurement": "GI50", "setting": "[5]", "result": "3.3 nM (active)"}, {"measurement": "GI50", "setting": "[6]", "result": "5 nM (active)"}, {"measurement": "GI50", "setting": "[20]", "result": "3.39 nM (active)"}, {"measurement": "GI50", "setting": "[7]", "result": "5.39 nM (active)"}, {"measurement": "GI50", "setting": "[8]", "result": "3.8 nM (active)"}, {"measurement": "GI50", "setting": "[9]", "result": "4.24 nM (active)"}, {"measurement": "GI50", "setting": "[10]", "result": "4.21 nM (active)"}, {"measurement": "GI50", "setting": "[11]", "result": "1.63 nM (active)"}, {"measurement": "GI50", "setting": "[12]", "result": "4.5 nM (active)"}, {"measurement": "GI50", "setting": "[13]", "result": "3.78 nM (active)"}, {"measurement": "GI50", "setting": "[14]", "result": "3.71 nM (active)"}, {"measurement": "GI50", "setting": "[15]", "result": "3.51 nM (active)"}, {"measurement": "GI50", "setting": "[16]", "result": "3.54 nM (active)"}, {"measurement": "GI50", "setting": "[17]", "result": "3.51 nM (active)"}, {"measurement": "GI50", "setting": "[18]", "result": "5.05 nM (active)"}, {"measurement": "GI50", "setting": "[19]", "result": "5.64 nM (active)"}]}
{"smiles": "Nc1ccc(C(=O)Nc2ccccc2N)cc1", "note": "[DINALINE]", "values": [{"measurement": "GI50", "setting": "[1]", "result": "42600 nM (inactive)"}, {"measurement": "GI50", "setting": "[2]", "result": "14200 nM (inactive)"}, {"measurement": "GI50", "setting": "[3]", "result": "38600 nM (inactive)"}, {"measurement": "GI50", "setting": "[4]", "result": "31100 nM (inactive)"}, {"measurement": "GI50", "setting": "[5]", "result": "11400 nM (inactive)"}, {"measurement": "GI50", "setting": "[6]", "result": "27500 nM (inactive)"}, {"measurement": "GI50", "setting": "[20]", "result": "14100 nM (inactive)"}, {"measurement": "GI50", "setting": "[7]", "result": "22300 nM (inactive)"}, {"measurement": "GI50", "setting": "[8]", "result": "16300 nM (inactive)"}, {"measurement": "GI50", "setting": "[9]", "result": "38200 nM (inactive)"}, {"measurement": "GI50", "setting": "[10]", "result": "5920 nM (inactive)"}, {"measurement": "GI50", "setting": "[11]", "result": "21000 nM (inactive)"}, {"measurement": "GI50", "setting": "[12]", "result": "24500 nM (inactive)"}, {"measurement": "GI50", "setting": "[13]", "result": "29100 nM (inactive)"}, {"measurement": "GI50", "setting": "[14]", "result": "> 66400 nM (inactive)"}, {"measurement": "GI50", "setting": "[15]", "result": "3370 nM (inactive)"}, {"measurement": "GI50", "setting": "[16]", "result": "59700 nM (inactive)"}, {"measurement": "GI50", "setting": "[17]", "result": "11800 nM (inactive)"}, {"measurement": "GI50", "setting": "[18]", "result": "30400 nM (inactive)"}, {"measurement": "GI50", "setting": "[19]", "result": "> 100000 nM (inactive)"}]}
